Assay results: ChEMBL document CHEMBL1128964, “Synthesis and analgesic activity of Epibatidine analogues” (Bioorg Med Chem Lett, 1996)
Activity calls are given as the source filed them. The rule behind the calls is not given here.

Key:
Mus musculus [1] = assay: Compound was tested for analgesic activity in mice after intraperitoneal administration at a dose of 10 ug/kg; less potent; assay type: functional, organism-based
Mus musculus [2] = assay: Compound was tested for analgesic activity in mice after intraperitoneal administration at a dose of 10 ug/kg; Significant; assay type: functional, organism-based
[3] = Lethal dose determined in Mice; assay type: toxicity; settings: mouse, in vivo
Mus musculus [4] = assay: Dose of compound that caused analgesic activity in mice after intraperitoneal administration; assay type: functional

Q: For `Clc1ccc(C2CCNC2)cn1` (centres undefined), which Activity (Mus musculus [1]) is on record?
A: less potent

Q: Which Activity (Mus musculus [2]) does the source give for `Clc1ccc(C2CC3CCC2N3)cn1` (racemic) here?
A: Active

Q: With `Clc1ccc(C2CC3CCCC2N3)cn1` (centres undefined) [HOMOEPIBATIDINE] as the molecule, how does the LD50 [3] read?
A: 10 mg/kg

Q: And the Dose (Mus musculus [4])?
A: 0.04 mg/kg
